Where “and” joins values, the source holds several entries; their conditions need not be identical. Equal values may be shown once.
What was measured:
Experiment in all cases: radiometric filter-binding kinase assay, Kinase HotSpot
Settings in all cases: compound 0.5 µM; ATP 10 µM
ABL1 (human) = ABL1 (human) (UniProt P00519)
AKT2 (human) = AKT2 (human) (UniProt P31751)
CDK1 CCNB1 (human) = CDK1 CCNB1 (human) (UniProt P06493+P14635)
CDK2 CCNE1 (human) = CDK2 CCNE1 (human) (UniProt P24941+P24864)
CDK9 CCNT1 (human) = CDK9 CCNT1 (human) (UniProt P50750+O60563)
CSK (human) = CSK (human) (UniProt P41240)
DSTYK (human) = DSTYK (human) (UniProt Q6XUX3)
DYRK4 (human) = DYRK4 (human) (UniProt Q9NR20)
EPHA2 (human) = EPHA2 (human) (UniProt P29317)
EPHA4 (human) = EPHA4 (human) (UniProt P54764)
FYN (human) = FYN (human) (UniProt P06241)
GSG2 (human) = GSG2 (human) (UniProt Q8TF76)
GSG2 (human), sequence (Q8TF76 whole entry, looked up): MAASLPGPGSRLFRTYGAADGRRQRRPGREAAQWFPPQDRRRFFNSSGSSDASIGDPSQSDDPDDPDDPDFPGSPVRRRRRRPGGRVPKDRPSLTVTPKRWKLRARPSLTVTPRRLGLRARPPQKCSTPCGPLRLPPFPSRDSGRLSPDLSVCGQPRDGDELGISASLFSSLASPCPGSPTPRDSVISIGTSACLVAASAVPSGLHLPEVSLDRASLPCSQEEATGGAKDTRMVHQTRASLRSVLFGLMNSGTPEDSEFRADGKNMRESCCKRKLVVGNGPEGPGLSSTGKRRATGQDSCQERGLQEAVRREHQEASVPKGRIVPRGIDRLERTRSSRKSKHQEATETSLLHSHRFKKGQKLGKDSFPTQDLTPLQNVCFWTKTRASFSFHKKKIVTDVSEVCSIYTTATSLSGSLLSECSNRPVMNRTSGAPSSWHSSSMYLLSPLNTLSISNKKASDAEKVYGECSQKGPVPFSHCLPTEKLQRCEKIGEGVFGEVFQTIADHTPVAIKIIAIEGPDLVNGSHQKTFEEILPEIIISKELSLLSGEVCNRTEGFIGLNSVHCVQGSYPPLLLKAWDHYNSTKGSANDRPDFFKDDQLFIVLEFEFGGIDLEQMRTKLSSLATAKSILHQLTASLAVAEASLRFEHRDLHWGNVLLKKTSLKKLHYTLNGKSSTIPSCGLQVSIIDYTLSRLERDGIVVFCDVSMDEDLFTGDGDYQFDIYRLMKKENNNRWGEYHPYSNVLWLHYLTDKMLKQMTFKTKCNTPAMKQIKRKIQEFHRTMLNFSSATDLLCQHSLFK

IGF1R (human) = IGF1R (human) (UniProt P08069)
JAK2 JH1 JH2 (human) = JAK2 JH1 JH2 (human) (UniProt O60674)
LCK (human) = LCK (human) (UniProt P06239)
LIMK1 (human) = LIMK1 (human) (UniProt P53667)
LIMK1 (human), sequence (P53667 whole entry, looked up): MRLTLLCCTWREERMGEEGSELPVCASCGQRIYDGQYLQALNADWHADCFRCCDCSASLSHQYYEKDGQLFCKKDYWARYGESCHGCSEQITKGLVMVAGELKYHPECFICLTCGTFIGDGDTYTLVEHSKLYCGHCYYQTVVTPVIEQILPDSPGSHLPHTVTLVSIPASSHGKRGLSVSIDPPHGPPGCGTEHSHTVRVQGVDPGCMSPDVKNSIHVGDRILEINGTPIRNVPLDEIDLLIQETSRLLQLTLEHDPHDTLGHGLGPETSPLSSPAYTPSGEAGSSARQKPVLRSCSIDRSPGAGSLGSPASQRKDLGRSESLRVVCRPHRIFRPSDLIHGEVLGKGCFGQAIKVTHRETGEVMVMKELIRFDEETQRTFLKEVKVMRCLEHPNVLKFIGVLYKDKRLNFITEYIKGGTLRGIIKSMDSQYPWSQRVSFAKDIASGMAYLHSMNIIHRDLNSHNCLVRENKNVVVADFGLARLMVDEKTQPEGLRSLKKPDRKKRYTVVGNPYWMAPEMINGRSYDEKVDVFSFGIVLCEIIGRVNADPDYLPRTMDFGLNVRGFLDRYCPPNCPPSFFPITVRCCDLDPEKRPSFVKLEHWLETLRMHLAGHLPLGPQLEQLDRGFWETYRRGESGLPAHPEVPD

LRRK2 (human) = LRRK2 (human) (UniProt Q5S007)
LYN (human) = LYN (human) (UniProt P07948)
MAP3K10 (human) = MAP3K10 (human) (UniProt Q02779)
MAP3K11 (human) = MAP3K11 (human) (UniProt Q16584)
MAP4K5 (human) = MAP4K5 (human) (UniProt Q9Y4K4)
MAPKAPK2 (human) = MAPKAPK2 (human) (UniProt P49137)
MAPKAPK2 (human), sequence (P49137 whole entry, looked up): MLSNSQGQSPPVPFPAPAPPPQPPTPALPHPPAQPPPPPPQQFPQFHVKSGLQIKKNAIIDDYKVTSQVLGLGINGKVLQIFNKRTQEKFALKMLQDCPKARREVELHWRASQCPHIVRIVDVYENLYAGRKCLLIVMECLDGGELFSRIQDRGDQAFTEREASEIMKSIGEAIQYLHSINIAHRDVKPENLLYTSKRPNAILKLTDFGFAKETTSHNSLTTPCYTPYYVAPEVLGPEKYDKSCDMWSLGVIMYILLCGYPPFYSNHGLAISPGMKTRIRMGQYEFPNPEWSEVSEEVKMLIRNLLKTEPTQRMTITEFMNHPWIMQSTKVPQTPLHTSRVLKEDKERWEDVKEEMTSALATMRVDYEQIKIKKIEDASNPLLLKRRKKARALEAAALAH

PAK2 (human) = PAK2 (human) (UniProt Q13177)
PAK2 (human), sequence (Q13177 whole entry, looked up): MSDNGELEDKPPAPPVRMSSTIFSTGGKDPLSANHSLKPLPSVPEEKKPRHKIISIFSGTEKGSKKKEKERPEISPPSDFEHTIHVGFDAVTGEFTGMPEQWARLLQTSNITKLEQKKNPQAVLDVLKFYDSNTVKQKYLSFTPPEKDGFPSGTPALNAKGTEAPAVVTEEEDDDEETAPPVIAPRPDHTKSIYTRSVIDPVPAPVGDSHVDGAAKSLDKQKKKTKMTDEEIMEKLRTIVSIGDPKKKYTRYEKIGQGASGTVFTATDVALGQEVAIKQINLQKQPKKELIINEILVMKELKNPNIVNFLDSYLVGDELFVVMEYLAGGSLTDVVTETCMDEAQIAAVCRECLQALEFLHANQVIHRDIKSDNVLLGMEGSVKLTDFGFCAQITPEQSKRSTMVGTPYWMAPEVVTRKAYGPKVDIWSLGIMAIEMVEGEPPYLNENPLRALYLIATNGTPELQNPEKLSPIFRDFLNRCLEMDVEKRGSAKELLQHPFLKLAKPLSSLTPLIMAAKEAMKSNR

PBK (human) = PBK (human) (UniProt Q96KB5)
PDPK1 (human) = PDPK1 (human) (UniProt O15530)
PHKG2 (human) = PHKG2 (human) (UniProt P15735)
PHKG2 (human), sequence (P15735 whole entry, looked up): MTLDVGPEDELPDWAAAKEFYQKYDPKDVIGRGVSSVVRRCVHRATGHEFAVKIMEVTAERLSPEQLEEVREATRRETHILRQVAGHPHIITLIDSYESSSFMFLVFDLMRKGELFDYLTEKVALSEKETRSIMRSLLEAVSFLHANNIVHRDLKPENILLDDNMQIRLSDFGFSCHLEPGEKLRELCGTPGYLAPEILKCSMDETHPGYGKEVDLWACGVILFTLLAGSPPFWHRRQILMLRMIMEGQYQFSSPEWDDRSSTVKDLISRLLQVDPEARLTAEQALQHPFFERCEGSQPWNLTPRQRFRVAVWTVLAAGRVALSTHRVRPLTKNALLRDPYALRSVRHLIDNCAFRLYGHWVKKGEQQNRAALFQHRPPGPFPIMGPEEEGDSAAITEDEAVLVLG

PKN1 (human) = PKN1 (human) (UniProt Q16512)
PRKCB1 (human) = PRKCB1 (human) (UniProt P05771)
PRKCB1 (human), sequence (P05771 whole entry, looked up): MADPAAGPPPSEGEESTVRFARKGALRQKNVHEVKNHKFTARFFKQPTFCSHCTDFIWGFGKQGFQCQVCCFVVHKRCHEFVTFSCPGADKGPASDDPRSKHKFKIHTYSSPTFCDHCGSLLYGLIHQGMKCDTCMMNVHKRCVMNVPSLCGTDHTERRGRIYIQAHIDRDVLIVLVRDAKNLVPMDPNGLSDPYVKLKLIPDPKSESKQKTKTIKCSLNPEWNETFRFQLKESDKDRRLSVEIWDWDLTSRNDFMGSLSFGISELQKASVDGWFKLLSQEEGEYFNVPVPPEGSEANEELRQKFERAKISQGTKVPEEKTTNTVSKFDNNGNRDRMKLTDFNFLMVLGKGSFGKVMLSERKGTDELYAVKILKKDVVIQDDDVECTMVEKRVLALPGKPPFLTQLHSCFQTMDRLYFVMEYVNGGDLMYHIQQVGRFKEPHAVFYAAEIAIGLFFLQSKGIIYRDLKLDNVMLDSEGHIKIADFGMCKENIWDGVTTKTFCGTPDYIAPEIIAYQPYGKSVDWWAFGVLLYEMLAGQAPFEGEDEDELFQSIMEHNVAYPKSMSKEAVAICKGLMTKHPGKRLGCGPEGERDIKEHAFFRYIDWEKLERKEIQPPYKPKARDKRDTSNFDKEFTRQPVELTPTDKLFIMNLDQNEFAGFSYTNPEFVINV

PRKCE (human) = PRKCE (human) (UniProt Q02156)
RAF1 (human) = RAF1 (human) (UniProt P04049)
RAF1 (human), sequence (P04049 whole entry, looked up): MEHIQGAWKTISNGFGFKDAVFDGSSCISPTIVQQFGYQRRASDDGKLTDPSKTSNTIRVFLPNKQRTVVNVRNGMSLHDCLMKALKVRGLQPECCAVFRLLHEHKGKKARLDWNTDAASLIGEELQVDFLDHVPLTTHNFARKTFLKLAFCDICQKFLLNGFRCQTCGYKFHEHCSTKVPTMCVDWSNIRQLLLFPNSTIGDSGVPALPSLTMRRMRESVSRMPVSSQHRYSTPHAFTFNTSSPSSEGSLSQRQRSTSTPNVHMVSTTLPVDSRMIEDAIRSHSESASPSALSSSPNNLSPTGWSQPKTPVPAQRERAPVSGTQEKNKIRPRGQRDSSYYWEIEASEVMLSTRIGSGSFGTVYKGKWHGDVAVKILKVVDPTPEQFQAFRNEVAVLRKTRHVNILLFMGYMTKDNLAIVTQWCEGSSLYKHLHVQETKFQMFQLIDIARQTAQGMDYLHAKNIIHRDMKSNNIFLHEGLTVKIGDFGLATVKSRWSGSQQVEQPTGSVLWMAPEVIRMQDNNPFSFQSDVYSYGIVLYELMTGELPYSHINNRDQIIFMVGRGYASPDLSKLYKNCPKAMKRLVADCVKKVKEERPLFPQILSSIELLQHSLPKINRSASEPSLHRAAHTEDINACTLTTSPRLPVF

ROCK2 (human) = ROCK2 (human) (UniProt O75116)
RPS6KA3 KD1 KD2 (human) = RPS6KA3 KD1 KD2 (human) (UniProt P51812)
RPS6KA6 KD1 KD2 (human) = RPS6KA6 KD1 KD2 (human) (UniProt Q9UK32)
STK10 (human) = STK10 (human) (UniProt O94804)
STK11 (human) = STK11 (human) (UniProt Q15831)
STK11 (human), sequence (Q15831 whole entry, looked up): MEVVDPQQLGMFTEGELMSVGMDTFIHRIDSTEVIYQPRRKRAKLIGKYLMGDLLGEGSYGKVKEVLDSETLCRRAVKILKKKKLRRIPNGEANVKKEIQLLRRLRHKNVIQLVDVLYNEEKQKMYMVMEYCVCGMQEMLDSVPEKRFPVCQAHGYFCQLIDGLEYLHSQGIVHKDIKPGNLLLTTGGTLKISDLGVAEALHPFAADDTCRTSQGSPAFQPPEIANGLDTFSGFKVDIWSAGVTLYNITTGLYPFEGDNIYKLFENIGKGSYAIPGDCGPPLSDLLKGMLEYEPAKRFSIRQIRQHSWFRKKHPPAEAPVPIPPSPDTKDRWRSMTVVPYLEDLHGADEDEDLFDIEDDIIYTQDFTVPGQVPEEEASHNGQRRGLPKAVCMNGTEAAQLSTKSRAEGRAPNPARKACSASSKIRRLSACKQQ

STK3 (human) = STK3 (human) (UniProt Q13188)
STK39 (human) = STK39 (human) (UniProt Q9UEW8)
TAOK1 (human) = TAOK1 (human) (UniProt Q7L7X3)
TGFBR1 (human) = TGFBR1 (human) (UniProt P36897)
TXK (human) = TXK (human) (UniProt P42681)
WNK3 (human) = WNK3 (human) (UniProt Q9BYP7)
ZAP70 (human) = ZAP70 (human) (UniProt P43403)

CDK2 CCNE1 (human), sequence (P24864 whole entry, looked up, other chains not shown): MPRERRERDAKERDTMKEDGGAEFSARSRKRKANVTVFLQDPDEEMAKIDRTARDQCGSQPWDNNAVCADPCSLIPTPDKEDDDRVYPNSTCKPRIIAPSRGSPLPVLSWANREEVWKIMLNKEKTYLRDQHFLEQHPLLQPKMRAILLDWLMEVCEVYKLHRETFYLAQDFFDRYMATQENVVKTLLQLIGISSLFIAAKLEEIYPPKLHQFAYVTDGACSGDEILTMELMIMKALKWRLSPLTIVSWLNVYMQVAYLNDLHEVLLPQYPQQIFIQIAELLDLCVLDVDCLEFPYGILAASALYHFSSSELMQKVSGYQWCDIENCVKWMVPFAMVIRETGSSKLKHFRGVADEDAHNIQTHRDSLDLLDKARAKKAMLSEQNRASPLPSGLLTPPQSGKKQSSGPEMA

SMILES: CN(C)c1ccc(/C=C2\C(=O)Nc3ccccc32)cc1
- residual activity (ABL1 (human)): 103%
- residual activity (AKT2 (human)): 98.1%
- residual activity (CDK1 CCNB1 (human)): 94.1%
- residual activity (CDK2 CCNE1 (human)): 97.1%
- residual activity (CDK9 CCNT1 (human)): 94.5%
- residual activity (CSK (human)): 96.9%
- residual activity (DSTYK (human)): 103%
- residual activity (DYRK4 (human)): 94.8%
- residual activity (EPHA2 (human)): 107%
- residual activity (EPHA4 (human)): 95.2%
- residual activity (FYN (human)): 104%
- residual activity (GSG2 (human)): 88.5%
- residual activity (IGF1R (human)): 101%
- residual activity (JAK2 JH1 JH2 (human)): 94.8%
- residual activity (LCK (human)): 93%
- residual activity (LIMK1 (human)): 97.7%
- residual activity (LRRK2 (human)): 89.8%
- residual activity (LYN (human)): 108% and 97.8%
- residual activity (MAP3K10 (human)): 96.6%
- residual activity (MAP3K11 (human)): 88.4%
- residual activity (MAP4K5 (human)): 84.5%
- residual activity (MAPKAPK2 (human)): 106%
- residual activity (PAK2 (human)): 102%
- residual activity (PBK (human)): 101%
- residual activity (PDPK1 (human)): 82.3%
- residual activity (PHKG2 (human)): 95.9%
- residual activity (PKN1 (human)): 98.4%
- residual activity (PRKCB1 (human)): 96.1%
- residual activity (PRKCE (human)): 92.6%
- residual activity (RAF1 (human)): 101%
- residual activity (ROCK2 (human)): 95.2%
- residual activity (RPS6KA3 KD1 KD2 (human)): 92.6%
- residual activity (RPS6KA6 KD1 KD2 (human)): 93.9%
- residual activity (STK10 (human)): 95.4%
- residual activity (STK11 (human)): 99.4%
- residual activity (STK3 (human)): 100%
- residual activity (STK39 (human)): 96.6%
- residual activity (TAOK1 (human)): 94.7%
- residual activity (TGFBR1 (human)): 96.7%
- residual activity (TXK (human)): 96.1%
- residual activity (WNK3 (human)): 98.1%
- residual activity (ZAP70 (human)): 89.9%

SMILES: O=C1Nc2ccc(Br)cc2/C1=C\c1cc2c([nH]1)CCCC2
- residual activity (ABL1 (human)): 91.8%
- residual activity (AKT2 (human)): 90.3%
- residual activity (CDK1 CCNB1 (human)): 98.5%
- residual activity (CDK2 CCNE1 (human)): 96%
- residual activity (CDK9 CCNT1 (human)): 90%
- residual activity (CSK (human)): 98.5%
- residual activity (DSTYK (human)): 93.1%
- residual activity (DYRK4 (human)): 102%
- residual activity (EPHA2 (human)): 110%
- residual activity (EPHA4 (human)): 94.8%
- residual activity (FYN (human)): 87.5%
- residual activity (GSG2 (human)): 88%
- residual activity (IGF1R (human)): 74.3%
- residual activity (JAK2 JH1 JH2 (human)): 95.2%
- residual activity (LCK (human)): 84.5%
- residual activity (LIMK1 (human)): 83%
- residual activity (LRRK2 (human)): 7.03%
- residual activity (LYN (human)): 70.8% and 86.8%
- residual activity (MAP3K10 (human)): 99.8%
- residual activity (MAP3K11 (human)): 16.8%
- residual activity (MAP4K5 (human)): 17.7%
- residual activity (MAPKAPK2 (human)): 97.5%
- residual activity (PAK2 (human)): 90%
- residual activity (PBK (human)): 87.8%
- residual activity (PDPK1 (human)): 95.3%
- residual activity (PHKG2 (human)): 90.5%
- residual activity (PKN1 (human)): 91.7%
- residual activity (PRKCB1 (human)): 97.4%
- residual activity (PRKCE (human)): 99.1%
- residual activity (RAF1 (human)): 88.2%
- residual activity (ROCK2 (human)): 92.8%
- residual activity (RPS6KA3 KD1 KD2 (human)): 80.9%
- residual activity (RPS6KA6 KD1 KD2 (human)): 78.6%
- residual activity (STK10 (human)): 65.5%
- residual activity (STK11 (human)): 88.7%
- residual activity (STK3 (human)): 60.7%
- residual activity (STK39 (human)): 86%
- residual activity (TAOK1 (human)): 92.3%
- residual activity (TGFBR1 (human)): 100%
- residual activity (TXK (human)): 97.3%
- residual activity (WNK3 (human)): 93.8%
- residual activity (ZAP70 (human)): 93.9%

SMILES: Cn1c2ccccc2c2c3c(c4c5ccccc5n(CCC#N)c4c21)CNC3=O
- residual activity (ABL1 (human)): 84.6%
- residual activity (AKT2 (human)): 110%
- residual activity (CDK1 CCNB1 (human)): 38.7%
- residual activity (CDK2 CCNE1 (human)): 27.8%
- residual activity (CDK9 CCNT1 (human)): 46.8%
- residual activity (CSK (human)): 81%
- residual activity (DSTYK (human)): 9.91%
- residual activity (DYRK4 (human)): 95.7%
- residual activity (EPHA2 (human)): 92.5%
- residual activity (EPHA4 (human)): 90.4%
- residual activity (FYN (human)): 90.6%
- residual activity (GSG2 (human)): 27.2%
- residual activity (IGF1R (human)): 98.3%
- residual activity (JAK2 JH1 JH2 (human)): 5.58%
- residual activity (LIMK1 (human)): 45.3%
- residual activity (LRRK2 (human)): 30.5%
- residual activity (LYN (human)): 90.3% and 94.4%
- residual activity (MAP3K10 (human)): 25.8%
- residual activity (MAP3K11 (human)): 2.19%
- residual activity (MAP4K5 (human)): 4.18%
- residual activity (MAPKAPK2 (human)): 109%
- residual activity (PAK2 (human)): 91.7%
- residual activity (PBK (human)): 84.2%
- residual activity (PDPK1 (human)): 63.2%
- residual activity (PHKG2 (human)): 8.4%
- residual activity (PKN1 (human)): 10.3%
- residual activity (PRKCB1 (human)): 18.7%
- residual activity (PRKCE (human)): 58.5%
- residual activity (RAF1 (human)): 111%
- residual activity (ROCK2 (human)): 48.5%
- residual activity (RPS6KA3 KD1 KD2 (human)): 5.93%
- residual activity (RPS6KA6 KD1 KD2 (human)): 4.2%
- residual activity (STK10 (human)): 20.1%
- residual activity (STK11 (human)): 31.8%
- residual activity (STK3 (human)): 3.07%
- residual activity (STK39 (human)): 96.7%
- residual activity (TAOK1 (human)): 43.9%
- residual activity (TGFBR1 (human)): 104%
- residual activity (TXK (human)): 6.39%
- residual activity (WNK3 (human)): 93.1%
- residual activity (ZAP70 (human)): 77.7%

SMILES: CN(C)CCCn1cc(C2=C(c3c[nH]c4ccccc34)C(=O)NC2=O)c2ccccc21
- residual activity (ABL1 (human)): 103%
- residual activity (AKT2 (human)): 88.7%
- residual activity (CDK1 CCNB1 (human)): 92%
- residual activity (CDK2 CCNE1 (human)): 80.4%
- residual activity (CDK9 CCNT1 (human)): 65.3%
- residual activity (CSK (human)): 97%
- residual activity (DSTYK (human)): 95%
- residual activity (DYRK4 (human)): 95%
- residual activity (EPHA2 (human)): 81.8%
- residual activity (EPHA4 (human)): 88.2%
- residual activity (FYN (human)): 88.3%
- residual activity (GSG2 (human)): 93.6%
- residual activity (IGF1R (human)): 91.7%
- residual activity (JAK2 JH1 JH2 (human)): 93.9%
- residual activity (LCK (human)): 91.8%
- residual activity (LIMK1 (human)): 94.7%
- residual activity (LRRK2 (human)): 89.8%
- residual activity (LYN (human)): 104% and 84.1%
- residual activity (MAP3K10 (human)): 81.8%
- residual activity (MAP3K11 (human)): 61%
- residual activity (MAP4K5 (human)): 68.5%
- residual activity (MAPKAPK2 (human)): 85.4%
- residual activity (PAK2 (human)): 96.2%
- residual activity (PBK (human)): 81.3%
- residual activity (PDPK1 (human)): 83.3%
- residual activity (PHKG2 (human)): 97.9%
- residual activity (PRKCB1 (human)): 3.24%
- residual activity (PRKCE (human)): 0.493%
- residual activity (RAF1 (human)): 118%
- residual activity (ROCK2 (human)): 113%
- residual activity (RPS6KA3 KD1 KD2 (human)): 2.47%
- residual activity (RPS6KA6 KD1 KD2 (human)): 3.97%
- residual activity (STK10 (human)): 19.4%
- residual activity (STK11 (human)): 92.8%
- residual activity (STK3 (human)): 44.2%
- residual activity (STK39 (human)): 91.9%
- residual activity (TAOK1 (human)): 80.8%
- residual activity (TGFBR1 (human)): 102%
- residual activity (TXK (human)): 107%
- residual activity (WNK3 (human)): 98.4%
- residual activity (ZAP70 (human)): 93%
